Test results published in patent US20070082880A1 (priority 2005, published 2007).

Legend:
PKCθ = PKCθ (Homo sapiens, UniProt Q04759); test: PKCθ Scintiplate Assay; assay type: biochemical; details: average value when one or more samples were tested
Experimental: This assay detects the phosphorylation of a biotinylated substrate by kinase utilizing radiolabeled ATP (ATP γ P33). The enzyme is either recombinant full length PKCθ (Panvera, P2996) or the purified recombinant active kinase domain of full length PKCθ (amino acids 362-706). The substrate in this assay is a biotinylated peptide with a sequence of biotin-[…]-CONH2. The assay buffer is composed of 100 mM Hepes, pH7.5, 2 mM MgCl2, 20 mM β-glycerophosphate and 0.008% TritonX 100. A reaction mixture of ATP, ATP γ P33 (PerkinElmer), DTT, lipid activator, and the enzyme is prepared in the assay buffer and added to a 96 well polypropylene plate. The compound (diluted in DMSO in a separate 96-well polypropylene plate) is added to the reaction mixture and incubated at room temperature. Following the incubation, the peptide substrate is added to the reaction mixture to initiate the enzymatic reaction. The reaction is terminated with the addition of a stop solution (10 mM EDTA, 0.2% TritonX100, and 100 mM NaHPO4) and transferred from the assay plate to a washed streptavidin-coated 96 well scintiplate (PerkinElmer). The scintiplate is incubated at room temperature, washed in PBS with 0.1% TritonX 100, and counted in the 1450 Microbeta Trilux (Wallac, Version 2.60). Counts are recorded for each well as corrected counts per minute (CCPM). The counts are considered corrected because they are adjusted according to a P33 normalization protocol, which corrects for efficiency and background differences between the instrument detectors (software version 4.40.01).

[1] = biological target: T1, human PKCθ full length enzyme (Homo sapiens, UniProt Q04759); test: PKCθ IMAP Assay; assay type: biochemical; details: average value when one or more samples were tested; ATP 6 uM, PKCθ 1 nM
T1 construct: human PKCθ full length enzyme (Panvera Catalog No. P2996); purchased Panvera P2996
Outline: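 Full-length human PKCθ (1 nM final) with 6 uM ATP and 100 nM 5FAM-labelled peptide, 5% DMSO, 3.0 mM DTT in reaction buffer. 25 min at room temperature; IMAP bead binding 20 min, fluorescence polarization read. Compounds 2:1 serially diluted; no-ATP and no-enzyme wells as controls.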

PKCθ, sequence (Q04759 362-706 limits assumed): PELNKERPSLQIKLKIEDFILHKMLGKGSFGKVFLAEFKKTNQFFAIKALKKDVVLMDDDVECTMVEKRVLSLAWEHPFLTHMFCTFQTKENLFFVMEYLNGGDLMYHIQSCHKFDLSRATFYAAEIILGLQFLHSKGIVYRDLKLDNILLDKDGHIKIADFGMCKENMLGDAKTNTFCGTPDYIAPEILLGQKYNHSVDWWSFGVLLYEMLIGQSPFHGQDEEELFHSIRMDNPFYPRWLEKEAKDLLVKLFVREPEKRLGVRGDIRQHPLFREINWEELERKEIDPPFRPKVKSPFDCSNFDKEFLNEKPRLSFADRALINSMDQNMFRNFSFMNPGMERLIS
T1 sequence (Q04759 whole entry): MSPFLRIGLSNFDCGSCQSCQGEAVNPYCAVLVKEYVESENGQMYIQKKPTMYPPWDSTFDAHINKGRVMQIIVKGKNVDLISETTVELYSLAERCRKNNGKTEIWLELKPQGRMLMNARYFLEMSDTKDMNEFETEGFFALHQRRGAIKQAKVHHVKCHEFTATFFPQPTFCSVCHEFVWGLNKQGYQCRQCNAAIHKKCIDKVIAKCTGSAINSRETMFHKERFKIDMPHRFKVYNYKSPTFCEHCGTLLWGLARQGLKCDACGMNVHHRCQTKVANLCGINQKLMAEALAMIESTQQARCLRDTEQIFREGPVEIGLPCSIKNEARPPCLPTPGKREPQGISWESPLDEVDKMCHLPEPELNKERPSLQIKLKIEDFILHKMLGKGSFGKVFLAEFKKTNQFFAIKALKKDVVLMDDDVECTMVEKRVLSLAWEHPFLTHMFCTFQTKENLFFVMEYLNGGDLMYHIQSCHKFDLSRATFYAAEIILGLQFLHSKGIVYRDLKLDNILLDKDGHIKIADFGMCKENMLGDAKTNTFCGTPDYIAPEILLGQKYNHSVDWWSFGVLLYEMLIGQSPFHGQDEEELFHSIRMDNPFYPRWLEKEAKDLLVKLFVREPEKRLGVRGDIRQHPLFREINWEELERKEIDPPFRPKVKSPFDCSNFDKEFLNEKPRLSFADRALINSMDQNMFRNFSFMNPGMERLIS

SMILES | IC50 (PKCθ) | IC50 [1]
Cc1c(Nc2c(C#N)cnc3sc(-c4ccccc4)cc23)ccc2[nH]ccc12 [Compound 117, 4-[(4-methyl-1H-indol-5-yl)amino]-2-phenylthieno[2,3-b]pyridine-5-carbonitrile] | 28 nM | 60 nM
CN1CCN(Cc2ccccc2-c2cc3c(Nc4cccc5[nH]ccc45)c(C#N)cnc3s2)CC1 [Compound 143, 4-(1H-indol-4-ylamino)-2-{2-[(4-methylpiperazin-1-yl)methyl]phenyl}thieno[2,3-b]pyridine-5-carbonitrile] | 180 nM | 240 nM
CN(C)Cc1ccc(-c2cc3c(Nc4ccc5[nH]ccc5c4)c(C#N)cnc3s2)s1 [Compound 211, 2-{5-[(dimethylamino)methyl]-2-thienyl}-4-(1H-indol-5-ylamino)thieno[2,3-b]pyridine-5-carbonitrile] | 34 nM | 82 nM
CN(C)CC#Cc1cc2c(Nc3ccc4[nH]ccc4c3)c(C#N)cnc2s1 [Compound 223, 2-[3-(dimethylamino)prop-1-yn-1-yl]-4-(1H-indol-5-ylamino)thieno[2,3-b]pyridine-5-carbonitrile] | 88 nM | 1400 nM
N#Cc1cnc2sc(-c3cccc(CN4CCN(CCO)CC4)c3)cc2c1Nc1ccc2[nH]ccc2c1 [Compound 148, 2-(3-{[4-(2-hydroxyethyl)piperazin-1-yl]methyl}phenyl)-4-(1H-indol-5-ylamino)thieno[2,3-b]pyridine-5-carbonitrile] | 60 nM | 73 nM
CCN(CC)CC#Cc1cc2c(Nc3ccc4[nH]ccc4c3)c(C#N)cnc2s1 [Compound 225, 2-[3-(diethylamino)prop-1-yn-1-yl]-4-(1H-indol-5-ylamino)thieno[2,3-b]pyridine-5-carbonitrile] | 220 nM | 440 nM
N#Cc1cnc2sc(-c3ccc(CNCCO)cc3)cc2c1Nc1ccc2[nH]ccc2c1 [Compound 106, 2-(4-{[(2-hydroxyethyl)amino]methyl}phenyl)-4-(1H-indol-5-ylamino)thieno[2,3-b]pyridine-5-carbonitrile] | 80 nM | 140 nM
N#Cc1cnc2sc(-c3cccc(CN(CCO)CCO)c3)cc2c1Nc1ccc2[nH]ccc2c1 [Compound 151, 2-(3-{[bis(2-hydroxyethyl)amino]methyl}phenyl)-4-(1H-indol-5-ylamino)thieno[2,3-b]pyridine-5-carbonitrile] | 88 nM | 77 nM
N#Cc1cnc2sc(-c3ccccc3CN3CCC(O)CC3)cc2c1Nc1ccc2[nH]ccc2c1 [Compound 186, 2-{2-[(4-hydroxypiperidin-1-yl)methyl]phenyl}-4-(1H-indol-5-ylamino)thieno [2,3-b]pyridine-5-carbonitrile] | 290 nM | 1600 nM
N#Cc1cnc2sc(C#Cc3cccnc3)cc2c1Nc1ccc2[nH]ccc2c1 [Compound 214, 4-(1H-indol-5-ylamino)-2-(pyridin-3-ylethynyl)thieno[2,3-b]pyridine-5-carbonitrile] | 16 nM | 190 nM
N#Cc1cnc2sc(-c3ccc(N4CCOCC4)cc3)cc2c1Nc1ccc2[nH]ccc2c1 [Compound 189, 4-(1H-indol-5-ylamino)-2-(4-morpholin-4-ylphenyl)thieno[2,3-b]pyridine-5-carbonitrile] | 2100 nM | 
CN1CCN(Cc2cccc(C#Cc3cc4c(Nc5ccc6[nH]ccc6c5)c(C#N)cnc4s3)n2)CC1 [Compound 216, 4-(1H-indol-5-ylamino)-2-({6-[(4-methylpiperazin-1-yl)methyl]pyridin-2-yl}ethynyl)thieno[2,3-b]pyridine-5-carbonitrile] | 90 nM | 320 nM
CN(C)Cc1cccc(-c2cc3c(Nc4cccc5[nH]ccc45)c(C#N)cnc3s2)c1 [Compound 141, 2-{3-[(dimethylamino)methyl]phenyl}-4-(1H-indol-4-ylamino)thieno[2,3-b]pyridine-5-carbonitrile] | 41 nM | 40 nM
CN(C)Cc1nc(-c2cc3c(Nc4ccc5[nH]ccc5c4)c(C#N)cnc3s2)cs1 [Compound 208, 2-{2-[(dimethylamino)methyl]-1,3-thiazol-4-yl}-4-(1H-indol-5-ylamino)thieno[2,3-b]pyridine-5-carbonitrile] | 50 nM | 100 nM
CN(C)Cc1ccc(-c2cc3c(Nc4ccc5[nH]ccc5c4)c(C#N)cnc3s2)nc1 [Compound 204, 2-{5-[(dimethylamino)methyl]pyridin-2-yl}-4-(1H-indol-5-ylamino)thieno[2,3-b] pyridine-5-carbonitrile] | 110 nM | 180 nM
N#Cc1cnc2sc(C#Cc3ccccn3)cc2c1Nc1ccc2[nH]ccc2c1 [Compound 213, 4-(1H-indol-5-ylamino)-2-(pyridine-2-ylethynyl)thieno[2,3-b]pyridine-5-carbonitrile] | 75 nM | 290 nM

SMILES | IC50 (PKCθ) | IC50 [1]
Cc1cc2cc(Nc3c(C#N)cnc4sc(-c5ccccc5)cc34)ccc2[nH]1 [Compound 118, 4-[(2-methyl-1H-indol-5-yl)amino]-2-phenylthieno[2,3-b]pyridine-5-carbonitrile] | 2700 nM | 1900 nM
N#Cc1cnc2sc(-c3ccccc3)cc2c1NC(=O)c1ccc2[nH]ccc2c1 [Compound 129, N-(5-cyano-2-phenylthieno[2,3-b]pyridin-4-yl)-1H-indole-5-carboxamide] | > 60000 nM | > 100000 nM
CN1CCN(Cc2ccc(-c3cc4c(NCCc5c[nH]cn5)c(C#N)cnc4s3)cc2)CC1 [Compound 128, 4-{[2-(1H-imidazol-4-yl)ethyl]amino}-2-{4-[(4-methylpiperazin-1-yl)methyl]phenyl}thieno[2,3-b]pyridine-5-carbonitrile] | 7300 nM | 
CN(C)CCc1ccc(-c2cc3c(Nc4ccc5[nH]ccc5c4)c(C#N)cnc3s2)cc1 [Compound 192, 2-{4-[2-(dimethylamino)ethyl]phenyl}-4-(1H-indol-5-ylamino)thieno[2,3-b] pyridine-5-carbonitrile] | 45 nM | 
N#Cc1cnc2sc(C#Cc3cn[nH]c3)cc2c1Nc1ccc2[nH]ccc2c1 [Compound 227, 4-(1H-indol-5-ylamino)-2-(1H-pyrazol-4-ylethynyl)thieno[2,3-b]pyridine-5-carbonitrile] | 150 nM | 290 nM
CN1CCN(Cc2ncc(-c3cc4c(Nc5ccc6[nH]ccc6c5)c(C#N)cnc4s3)n2C)CC1 [Compound 210] | 580 nM | 
N#Cc1cnc2sc(-c3ccccc3)cc2c1Nc1ccc2[nH]cnc2c1 [Compound 119, 4-(1H-benzimidazol-5-ylamino)-2-phenylthieno[2,3-b]pyridine-5-carbonitrile] | 9100 nM | 
N#Cc1cnc2sc(-c3cccc(CN4CCN(CCc5ccccc5)CC4)c3)cc2c1Nc1ccc2[nH]ccc2c1 [Compound 152, 4-(1H-indol-5-ylamino)-2-(3-{[4-(2-phenylethyl)piperazin-1-yl]methyl}phenyl)thieno[2,3-b]pyridine-5-carbonitrile] | 310 nM | 
CN1CCN(CCC#Cc2cc3c(Nc4cccc5[nH]ccc45)c(C#N)cnc3s2)CC1 [Compound 222, 4-(1H-indol-4-ylamino)-2-[4-(4-methylpiperazin-1-yl)but-1-yn-1-yl]thieno[2,3-b]pyridine-5-carbonitrile] | 170 nM | 150 nM
CN(C)Cc1ccc(-c2cc3c(Nc4ccc5[nH]ccc5c4)c(C#N)cnc3s2)cc1 [Compound 105, 2-{4-[(dimethylamino)methyl]phenyl}-4-(1H-indol-5-ylamino)thieno[2,3-b]pyridine-5-carbonitrile] | 77 nM | 
N#Cc1cnc2sc(-c3ccc(CN4CCOCC4)cc3)cc2c1Nc1cccc2[nH]ccc12 [Compound 138, 4-(1H-indol-4-ylamino)-2-[4-(morpholin-4-ylmethyl)phenyl]thieno[2,3-b]pyridine-5-carbonitrile] | 190 nM | 
Cn1cncc1-c1cc2c(Nc3ccc4[nH]ccc4c3)c(C#N)cnc2s1 [Compound 205, 4-(1H-indol-5-ylamino)-2-(1-methyl-1H-imidazol-5-yl)thieno[2,3-b]pyridine-5-carbonitrile] | 180 nM | 
CN1CCN(Cc2cccc(-c3cc4c(Nc5ccc6[nH]ccc6c5)c(C#N)cnc4s3)c2)CC1 [Compound 145, 4-(1H-indol-5-ylamino)-2-{3-[(4-methylpiperazin-1-yl)methyl]phenyl}thieno[2,3-b]pyridine-5-carbonitrile] | 90 nM | 
CCN1CCN(CC/C=C/c2cc3c(Nc4ccc5[nH]ccc5c4)c(C#N)cnc3s2)CC1 [Compound 190, 2-[(1E)-4-(4-ethylpiperazin-1-yl)but-1-en-1-yl]-4-(1H-indol-5-ylamino)thieno[2,3-b]pyridine-5-carbonitrile] | 190 nM | 
N#Cc1cnc2sc(C#Cc3ccccc3)cc2c1Nc1ccc2[nH]ccc2c1 [Compound 215, 4-(1H-indol-5-ylamino)-2-(phenylethynyl)thieno[2,3-b]pyridine-5-carbonitrile] | 500 nM | 
